Results on twelve molecules are retold here after patent publication US11801255B2, “Lipid disulfide prodrugs and uses related thereto” (priority 2017, dated 2023).

Where two headings read alike, the source gives them in different places.

In general, CC50 refers to the concentration at which the toxic effect on the cells reaches its halfway point. The EC50 is the concentration at which the effect is half-maximal.

Data set [1] relates to PBMCs. Nature of the data set: in vitro. In kind it is cell-based, human.
Data set [2] concerns HIV-1. Nature of the data set: microbe, parasite or virus in culture. The following applies: for TI(CC50/EC50): HIV-1, PBMCs. On the procedure: (§1) Compounds synthesized were evaluated against HIV-infected PBMCs and antiviral activity was assessed by measuring reverse transcriptase in cell supernatants. Compounds 11a-e, 12a-e, and 13 were assayed against HBV and qPCR was used to quantify viral DNA following incubation in HepG2.2.15 cells after 6 days.

The subject of data set [3] is HepG2. The data set is described as follows: Cytotoxicity: viability of uninfected HepG2 cells. It counts as cell-based. The conditions noted are these: Table 1; uninfected cells; read-out: HBV CC50 (HepG2).
Data set [4] deals with HBV. The data set is described as follows: Antiviral activity against HBV in HepG2.2.15 cells, viral DNA by qPCR after 6 days. The conditions noted are these: Table 1; for HBV TI (CC50/EC50): HepG2; for EC50: read-out: HBV EC50 (HepG2), inhibit HBV by 50%. On the procedure: as §1
In general terms: Quantitative PCR measures a nucleic acid by following its amplification.

Where [5] appears, read: Table 4, read-out: CC50 (PBMCs).
Where [6] appears, read: read-out: HIV-1 activity (EC50), PBMCs.
The mark [7] stands for this setting: read-out: EC50 (PBMCs), Table 4, HIV-1.
Where [8] appears, read: Table 1, viability of uninfected cells reduced by 50%, read-out: HIV-1 CC50 (PBMCs).

Take `CCCCCCCCCCCCCCCCSSCCOP(=O)(COC(C)Cn1cnc2c(N)ncnc21)OC` (mixture of isomers) [Compound 13]: the 50% cytotoxic concentration (CC50) in data set [1] (setting [5]) is 38200 nM. In addition, in data set [2] (Table 4), the “TI(CC50/EC50)” value is 1,500. For the same molecule, in data set [2] (setting [6]), the 50% effective concentration (EC50) came out at 26 nM.

`CCCCCCCCCCCCCCCCSSCCOP(=O)(COC(C)Cn1cnc2c(N)ncnc21)OCC` (mixture of isomers) [Compound 14]: the CC50 in data set [1] (setting [5]) turned out to be 36200 nM. In addition, the “TI(CC50/EC50)” value in data set [2] (Table 4) was determined as 104. For the same molecule, the EC50 in data set [2] (setting [7]) came to 349 nM.

With `CCCCCCCCCCCCCCCCSSCCOP(=O)(COC(C)Cn1cnc2c(N)ncnc21)OCCC` (mixture of isomers) [Compound 15], the CC50 in data set [1] (setting [5]) was determined as 10600 nM. Further, the “TI(CC50/EC50)” value in data set [2] (Table 4) worked out at 49.0. Further, in data set [2] (setting [7]), the EC50 amounted to 216 nM.

Take `CCCCCCCCCCCCCCCCSSCCOP(=O)(COC(C)Cn1cnc2c(N)ncnc21)OCCCC` (mixture of isomers) [Compound 16]: the half-maximal cytotoxic concentration (CC50) in data set [1] (setting [5]) was found to be 27900 nM. The “TI(CC50/EC50)” value in data set [2] (Table 4) came to 150. Also, the concentration for a half-maximal effect (EC50) in data set [2] (setting [7]) is 190 nM.

As for `CCCCCCCCCCCCCCCCSSCCOP(=O)(COC(C)Cn1cnc2c(N)ncnc21)OC(C)CC` (mixture of isomers) [Compound 17], the CC50 in data set [1] (setting [5]) turned out to be 23700 nM. The “TI(CC50/EC50)” value in data set [2] (Table 4) is given as 480. For the same molecule, the EC50 in data set [2] (setting [7]) is 49 nM. For the same molecule, the “HIV-1 activity of s-Bu ester relative to n-Bu analogue 16” value in data set [2] (vs compound 16) is “nearly four-fold”.

As to `CCCCCCCCCCCCCCCCSSCCOP(=O)(COC(C)Cn1cnc2c(N)ncnc21)OCC(C)(C)C` (mixture of isomers) [Compound 18], the half-maximal cytotoxic concentration (CC50) in data set [1] (setting [5]) is more than 100000 nM. The “TI(CC50/EC50)” value in data set [2] (Table 4) was more than 700. Moreover, the EC50 in data set [2] (setting [6]) came to 140 nM.

With `CCCCCCCCCCCCCCCCSSCCOP(=O)(COC(C)Cn1cnc2c(N)ncnc21)OCc1ccccc1` (mixture of isomers) [Compound 19], the CC50 in data set [1] (setting [5]) worked out at 41100 nM. The “TI(CC50/EC50)” value in data set [2] (Table 4) is given as 2,300. Further, the EC50 in data set [2] (setting [6]) came out at 18 nM.

Regarding `CCCCCCCCCCCCCCCCSSCCOP(=O)(COC(C)Cn1cnc2c(N)ncnc21)Nc1ccccc1` (mixture of isomers) [Compound 20], in data set [1] (setting [5]), the CC50 was determined as 34200 nM. The “TI(CC50/EC50)” value in data set [2] (Table 4) was 7,000. For the same molecule, in data set [2] (setting [6]), the EC50 amounted to 5 nM.

With `CCCCCCCCCCCCCCCCCCOP(=O)(COC(C)Cn1cnc2c(N)ncnc21)OCCSSCCCCCCCCCCCCCCCC` (mixture of isomers) [Compound 21], the cytotoxic concentration (CC50) in data set [1] (setting [5]) was more than 50000 nM. The “TI(CC50/EC50)” value in data set [2] (Table 4) was more than 50. In addition, the concentration for a half-maximal effect (EC50) in data set [2] (setting [6]) is 911 nM.

As to `CCCCCCCCCCSSCCOP(=O)(O)CO[C@H](C)Cn1cnc2c(N)ncnc21.N` [Compound 11a], the CC50 in data set [1] (setting [8]) and in data set [3] was more than 50000 nM throughout. The “fold less potent than TDF, HIV-1” value in data set [2] (EC50 ratio vs TDF) worked out at 18 fold. In addition, the “HIV-1 TI (CC50/EC50)” value in data set [2] (Table 1, PBMCs) is on record as more than 590. Also, the EC50 is 85 nM in data set [2] (setting [6]) and more than 50000 nM in data set [4]. For the same molecule, in data set [4], the “HBV TI (CC50/EC50)” value is more than 1.

With `CCCCCCCCCCCCSSCCOP(=O)(O)CO[C@H](C)Cn1cnc2c(N)ncnc21.N` [Compound 11b], the results for the CC50 in data set [1] (setting [8]) and in data set [3] were 25000 nM and more than 50000 nM, respectively. In data set [2] (Table 1, PBMCs), the “HIV-1 TI (CC50/EC50)” value is recorded as 8,300. For the same molecule, the results for the EC50 in data set [2] (setting [6]) and in data set [4] were 3 nM and 1670 nM, respectively. Besides, in data set [2] (vs CMX-157 (20 nM)), the “fold more active than CMX-157, HIV-1” value is “seven-fold”. In data set [4], the “HBV TI (CC50/EC50)” value was more than 30.

With `CCCCCCCCCCCCCCCCCCSSCCOP(=O)(O)CO[C@H](C)Cn1cnc2c(N)ncnc21.N` [Compound 11e], the CC50 in data set [1] (setting [8]) was 6360 nM; in data set [3], more than 50000 nM. The “HIV-1 TI (CC50/EC50)” value in data set [2] (Table 1, PBMCs) was 11,000. In addition, the 50% effective concentration (EC50) in data set [2] (read-out: HIV-1 EC50 (PBMCs), Table 1, inhibit HIV-1 by 50%, average of triplicate) was found to be 0.6 nM; in data set [4], 505 nM. The “HBV TI (CC50/EC50)” value in data set [4] is reported as more than 50.
